This is an account of results in patent US8889688B2, “Piperazines as antimalarial agents” (Actelion Pharmaceuticals Ltd., priority 2011, dated 2014).

Read-outs that look alike come from different tables or passages of the source.

Experiment [1] concerns P. berghei strain GFP-ANKA. Put plainly: In vivo antimalarial efficacy study in infected NMRI mice. The conditions noted are these: female NMRI mice infected with P. berghei GFP-ANKA, single oral dose of 100 mg/kg 24 h after infection, parasitemia 48 h after drug treatment (day 3); for inhibition in vivo at 100 mg/kg: Plasmodium berghei, read-out: Activity (inhibition of parasitemia) expressed as a percent relative to the control group. In outline:
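Female NMRI mice, in groups of three, were infected i.v. on day 0 with 2×10^7 P. berghei GFP-ANKA parasitized erythrocytes. At 24 h they received one oral 100 mg/kg dose in Tween 80/ethanol (7%/3%). Parasitemia was counted by FACS on day 3, and activity was given as percent reduction versus controls.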

Experiment [2] relates to erythrocytic stages of P. falciparum NF54. As to the kind of experiment: Plasmodium falciparum in vitro assay, [3H] hypoxanthine incorporation. The class given is cell-based. The conditions noted are these: P. falciparum NF54 in human red blood cells, 48 h + 24 h incubation. In outline:
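Cultures in human red blood cells (2.5% hematocrit, 0.3% parasitemia) were exposed to serially diluted compounds for 48 h at 37° C. under 4% CO2, 3% O2, 93% N2. [3H] hypoxanthine (0.5 μCi) was added for a further 24 h, incorporation counted by scintillation, and IC50 derived from sigmoidal inhibition curves.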

Where [3] appears, read: Plasmodium falciparum, Erythrocyte, 72 h, screening medium with Albumax (5 g/L), read-out: IC50 on NF54 (with Albumax).
Setting [4] is: Plasmodium falciparum, Erythrocyte, 72 h, screening medium with human serum (50% final concentration), read-out: IC50 on NF54 (with 50% Serum).

For orientation: IC50 means the concentration that inhibits the measured activity by half. `CCOc1ccc(C=CC(=O)N(Cc2ccc(N3CCN(C(C)=O)CC3)cc2)[C@@H](Cc2ccccc2)C(=O)N2CCN(Cc3ccc(N(C)CCO)cc3)CC2)cn1` [Example 53, (S)-N-[4-(4-Acetyl-piperazin-1-yl)-benzyl]-N-[1-benzyl-2-(4-{4-[(2-hydroxy-ethyl)-methyl-amino]-benzyl}-piperazin-1-yl)-2-oxo-ethyl]-3-(6-ethoxy-pyridin-3-yl)-acrylamide]: in experiment [1], the inhibition in vivo at 100 mg/kg stood at 52.3%. The IC50 in experiment [2] (setting [3]) is 4.3 nM; in experiment [2] (setting [4]), 12.4 nM.
Taken in the same sequence, the figures for `CCOc1ccc(C=CC(=O)N(Cc2ccc(N3CCN(C(C)=O)CC3)cc2)[C@@H](Cc2ccccc2)C(=O)N2CCN(Cc3ccc(N(C)CCO)cc3)CC2)cc1` [Example 54, (S)-N-[4-(4-Acetyl-piperazin-1-yl)-benzyl]-N-[1-benzyl-2-(4-{4-[(2-hydroxy-ethyl)-methyl-amino]-benzyl}-piperazin-1-yl)-2-oxo-ethyl]-3-(4-ethoxy-phenyl)-acrylamide] were 93.7%, 1.6 nM and 5.9 nM.
Taken in the same sequence, the figures for `CC(=O)N1CCN(c2ccc(CN(C(=O)C=Cc3ccc(S(C)(=O)=O)cc3)[C@@H](Cc3ccccc3)C(=O)N3CCN(Cc4ccc(N(C)CCO)cc4)CC3)cc2)CC1` [Example 55, (S)-N-[4-(4-Acetyl-piperazin-1-yl)-benzyl]-N-[1-benzyl-2-(4-{4-[(2-hydroxy-ethyl)-methyl-amino]-benzyl}-piperazin-1-yl)-2-oxo-ethyl]-3-(4-methanesulfonyl-phenyl)-acrylamide] were below 40%, 7.5 nM and 14.8 nM.
Taken in the same sequence, the figures for `CCCOc1ccc(C=CC(=O)N(Cc2ccc(N3CCN(C(C)=O)CC3)cc2)[C@@H](Cc2ccccc2)C(=O)N2CCN(Cc3ccc(N(C)CCO)cc3)CC2)cc1` [Example 57, (S)-N-[4-(4-Acetyl-piperazin-1-yl)-benzyl]-N-[1-benzyl-2-(4-{4-[(2-hydroxy-ethyl)-methyl-amino]-benzyl}-piperazin-1-yl)-2-oxo-ethyl]-3-(4-propoxy-phenyl)-acrylamide] were 98.2%, 1.7 nM and 5.1 nM.
Regarding `CC(=O)N1CCN(c2ccc(CN(C(=O)C=Cc3ccc(OC(C)C)cc3)[C@@H](Cc3ccccc3)C(=O)N3CCN(Cc4ccc(N(C)CCO)cc4)CC3)cc2)CC1` [Example 58, (S)-N-[4-(4-Acetyl-piperazin-1-yl)-benzyl]-N-[1-benzyl-2-(4-{4-[(2-hydroxy-ethyl)-methyl-amino]-benzyl}-piperazin-1-yl)-2-oxo-ethyl]-3-(4-isopropoxy-phenyl)-acrylamide], the inhibition in vivo at 100 mg/kg in experiment [1] came to 98.2%. For the same compound, the results for the IC50 in experiment [2] (setting [3]) and in experiment [2] (setting [4]) were 1.4 nM and 3.9 nM, respectively.
Consider `CCc1ccc(C=CC(=O)N(Cc2ccc(N3CCN(C(C)=O)CC3)cc2)[C@@H](Cc2ccccc2)C(=O)N2CCN(Cc3ccc(N(C)CCO)cc3)CC2)cc1` [Example 59, (S)-N-[4-(4-Acetyl-piperazin-1-yl)-benzyl]-N-[1-benzyl-2-(4-{4-[(2-hydroxy-ethyl)-methyl-amino]-benzyl}-piperazin-1-yl)-2-oxo-ethyl]-3-(4-ethyl-phenyl)-acrylamide], for which the inhibition in vivo at 100 mg/kg in experiment [1] is 96.5%. For the same compound, the IC50 in experiment [2] (setting [3]) was 1.6 nM; in experiment [2] (setting [4]) it was 3.8 nM.
For `CC(=O)N1CCN(c2ccc(CN(C(=O)C=Cc3ccc(OC(F)F)cc3)[C@@H](Cc3ccccc3)C(=O)N3CCN(Cc4ccc(N(C)CCO)cc4)CC3)cc2)CC1` [Example 60, (S)-N-[4-(4-Acetyl-piperazin-1-yl)-benzyl]-N-[1-benzyl-2-(4-{4-[(2-hydroxy-ethyl)-methyl-amino]-benzyl}-piperazin-1-yl)-2-oxo-ethyl]-3-(4-difluoromethoxy-phenyl)-acrylamide] the same measures were 78.3%, 3 nM and 8.1 nM.
Taken in the same sequence, the figures for `CC(=O)N1CCN(c2ccc(CN(C(=O)C=Cc3ccc(C(C)(C)C)cc3)[C@@H](Cc3ccccc3)C(=O)N3CCN(Cc4ccc(N(C)CCO)cc4)CC3)cc2)CC1` [Example 62, (S)-N-[4-(4-Acetyl-piperazin-1-yl)-benzyl]-N-[1-benzyl-2-(4-{4-[(2-hydroxy-ethyl)-methyl-amino]-benzyl}-piperazin-1-yl)-2-oxo-ethyl]-3-(4-tert-butyl-phenyl)-acrylamide] were 99.4%, 0.7 nM and 3.2 nM.
Take “(S)-N-[4-(4-Acetyl-piperazin-1-yl)-benzyl]-N-[1-benzyl-2-(4-{4-[(2-hydroxy-ethyl)-methyl-amino]-benzyl}-piperazin-1-yl)-2-oxo-ethyl]-3-(4-isopropyl-phenyl)-acrylamide [Example 61]”: the “Activity (inhibition of parasitemia) expressed as a percent relative to the control group” value in experiment [1] is listed as 98.8%. Moreover, the IC50 came to 1.2 nM in experiment [2] (screening medium with Albumax (5 g/L), read-out: IC50 on NF54 (with Albumax)) and 6.7 nM in experiment [2] (screening medium with human serum (50% final concentration), read-out: IC50 on NF54 (with 50% Serum)).
